Laboratory results reported in patent US8048918B2, “Treatment of hyperproliferative diseases” (Vampex Limited, priority 2000, dated 2011).
Where no end group is shown, it is not given here.

What was measured:
retinol dehydrogenase = conditions: Boerman and Napoli, Biochemistry 34:7027-37, 1995; cited from earlier work
[1] = test system: hyperproliferative psoriatic keratinocytes; assay: differentiation assay (K1/K10 mRNA, Northern blot / RT-PCR) on hyperproliferative psoriatic keratinocytes; type: cell-based, human; conditions: peptides 6 μM, Ca2+ 1.2 mM, RBP 0.6 μM
Procedure: RNA extraction is carried out according to the manufacturers instructions using the RNeasy kit (QIAGEN). 20 μg of RNA for each treatment was separated on a 1.2% agarose (1.8% formaldehyde) gel and transferred onto a nylon membrane (Zeta probe GT membranes, BioRad) by capillary transfer. The RNA is fixed to the membrane by UV crosslinking. DNA probes for the differentiation markers K1 and K10(50 ng) are labelled with [α-^32P] dCTP using the Prime-It RmT Primer labeling kit (Stratagene) following the manufacturer's instructions. Unincorporated nucleotides are removed by elution through a Microspin G25 column (Pharmacia Biotech). The blots are wetted in 0.25M sodium phosphate (pH 7.2)/7% SDS for 30 minutes at 65° C. Fresh hybridisation solution is added along with the radiolabelled probe and the blot is hybridised overnight at 65° C.
The blot is washed for 2×5 minutes in 0.25M sodium phosphate (pH 7.2), 7% SDS and then for 2×5 minutes in 20 mM sodium phosphate (pH 7.2), 5% SDS at 65° C. The wash steps are repeated until a clear distinction can be made between the signal and non-specific background. The blot is exposed to x-ray film for 24 hours before developing.
Synthesis of mRNA for the K1 and K10 keratin (markers for commitment to terminal differentiation) is examined by quantitative reverse transcription PCR (RT-PCR). Synthesis of mRNA for Cyclin D (a marker for cell proliferation) is also assayed by RT-PCR. Standard protocol for RT-PCR is followed as recommended by the manufacturer of the PCR machine (PE 2400) using 1 μg RNA from each keratinocyte culture. Suitable primers for RT-PCR are designed based on the human sequences of K1 and K10 deposited in GenBank. Northern blots are also performed: cells are harvested, RNA extracted and 20 μg RNA loaded into each well of a formaldehyde/agarose gel. The RNA is blotted onto a nylon membrane by capillary transfer and expression of K1 mRNA is determined by Northern hybridisation with a radiolabelled DNA probe.
Next, hyperproliferative epidermal keratinocytes are obtained, isolated and cultured as described above in Example 3. Hyperproliferative psoriatic keratinocytes are cultured as described above in serum-free medium with or without the addition of […] human retinol binding protein. At confluence the cells are treated (see Table 3 below) for 96 hours with peptides to 6 μM (medium replaced after 48 hours). Treatments shown in the Table 3 are for duplicate T-25 flasks (2×7 ml for each treatment).
The final concentrations are: Ca^2+ 1.2 mM, RBP 0.6 μM, peptides 6 μM.
Expression of K1 and K10 markers is determined as described above in Example 4. […]
Synthesis of mRNA for markers of proliferation and differentiation is also examined by semi-quantitative reverse transcription PCR (RT-PCR). […]

COS-7 cells = assay: proliferation assay of COS-7 cells (Coulter counter); type: cell-based; conditions: P142 1 mg/ml, peptides 6 μM; 24 and 48 hours after treatment; FIG. 8
Procedure: […] (COS1 and COS7) are purchased from the European Cell Culture Collection, thawed and propagated according to the instructions from the supplier; cells are cultured essentially in the same manner as for normal human keratinocytes (Example 3 above), except that cells are seeded at 20 000 cells/cm^2, with only one treatment with antibody P142, control immunoglobulin, peptide 589, peptide 592 or control peptide 24 hrs after seeding.
Proliferation is assayed by counting cells in a Coulter counter, as described above.

RalDHI = target: T1, RalDHI (Rattus norvegicus, UniProt P51647); conditions: Penzes et al. 1997; Chen and Juchau 1997; cited from earlier work
T1 sequence (P51647 1-501): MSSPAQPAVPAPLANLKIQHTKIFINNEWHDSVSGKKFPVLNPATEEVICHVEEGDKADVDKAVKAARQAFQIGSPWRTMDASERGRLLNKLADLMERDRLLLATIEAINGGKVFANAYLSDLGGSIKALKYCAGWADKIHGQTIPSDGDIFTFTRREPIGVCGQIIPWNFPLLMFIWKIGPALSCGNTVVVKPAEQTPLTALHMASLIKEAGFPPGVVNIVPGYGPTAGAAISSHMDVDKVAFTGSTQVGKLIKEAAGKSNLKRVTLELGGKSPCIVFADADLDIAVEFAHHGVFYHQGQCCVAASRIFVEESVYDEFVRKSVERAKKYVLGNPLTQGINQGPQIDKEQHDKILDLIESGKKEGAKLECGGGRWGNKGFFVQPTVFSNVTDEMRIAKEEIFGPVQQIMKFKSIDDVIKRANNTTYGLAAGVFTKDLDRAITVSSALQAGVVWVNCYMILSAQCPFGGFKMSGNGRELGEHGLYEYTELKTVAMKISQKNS

RalDHII = target: T2, RalDHII (Rattus norvegicus, UniProt Q63639); conditions: Penzes et al. 1997; Chen and Juchau 1997; cited from earlier work
T2 sequence (Q63639 1-518): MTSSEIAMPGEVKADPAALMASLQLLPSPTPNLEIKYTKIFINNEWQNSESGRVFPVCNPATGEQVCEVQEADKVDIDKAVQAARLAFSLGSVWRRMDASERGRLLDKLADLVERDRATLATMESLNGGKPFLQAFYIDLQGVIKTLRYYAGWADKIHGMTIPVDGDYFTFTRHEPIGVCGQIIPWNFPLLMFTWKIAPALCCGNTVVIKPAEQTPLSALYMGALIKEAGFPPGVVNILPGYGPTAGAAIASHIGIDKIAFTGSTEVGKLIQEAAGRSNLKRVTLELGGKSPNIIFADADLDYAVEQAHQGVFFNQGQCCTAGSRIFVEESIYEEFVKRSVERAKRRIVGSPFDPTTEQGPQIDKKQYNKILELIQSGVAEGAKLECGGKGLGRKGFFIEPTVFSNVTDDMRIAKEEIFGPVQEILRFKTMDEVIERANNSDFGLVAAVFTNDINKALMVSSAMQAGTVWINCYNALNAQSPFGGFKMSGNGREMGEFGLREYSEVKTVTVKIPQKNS

Molecule: CC1(C)[C@@H](OC(=O)CCC(=O)O)CC[C@]2(C)[C@H]3C(=O)C=C4[C@@H]5C[C@@](C)(C(=O)O)CC[C@]5(C)CC[C@@]4(C)[C@]3(C)CC[C@@H]12 [Carbenoxolone]
- IC50 (retinol dehydrogenase): 55 µM

Molecule: GRVRLLNNWDVCA
- differentiation (expression of K1 and K10 markers) [1]: enhances the expression of K1 and K10 markers
- differentiation (expression of K1 and K10 markers) ([1]; listed as peptide 389): reversed
- proliferation of Cos-7 cells (cell numbers) (COS-7 cells): marked reduction in proliferation

Molecule: CC(C)=CCCC(C)=CC=O [Citral, 3,7-dimethyl-2,6-octadienal]
- IC50 (RalDHI): 1 µM
- IC50 (RalDHII): 12 µM
